The target in data set [1] is T1, 6-Phosphogluconolactonase (Plasmodium falciparum, UniProt Q8IKU0).
T1 construct: […]; His6 with linker ([…]) (N); made in house
In words: Bioaffinity Mass Spectrometry Screening, 6-Phosphogluconolactonase. The data set is classed as binding. The following applies: compound:protein ~5:1. Here is the method:
(§1) Bioaffinity Mass Spectrometry Screening Method
(§2) Recombinant proteins were prepared by the Van Voorhis group according to the same protocol as in [25]. Proteins were buffer-exchanged into a suitable volatile buffer (ammonium acetate or ammonium bicarbonate) for native ESI-MS. Depending on the protein, the buffer and its concentration is chosen to obtain the highest sensitivity in the mass spectrometer. We have chosen ammonium acetate buffer (10mM, pH 7) for these two proteins, dUTPase and 6-Phosphogluconolactonase.
(§3) High-resolution Fourier transform mass spectrometry (FTMS) can identify the molecular weight of the bound ligand. The difference between the mass-to-charge ratio (Δm/z) for the unbound protein and the [protein-bound ligand] complex ions was multiplied by the charge state (z) to directly afford the molecular weight of the bound ligand, using the following equation.
(§4) The BMSS assay was performed on 400 Malaria Box compounds against 25 Plasmodium falciparum proteins, which are critical in malaria cell growth and invasion. Pools of eight Malaria Box compounds (each compound 1 µL, 1 mM in methanol) were incubated with a P. falciparum protein one hour at room temperature. When a non-covalent complex was found, the molecular weight of the binding compound was deducted from the spectrum. On the basis of this information, a binding confirmation on the selected compound was performed. […]

The subject of data set [2] is P. falciparum Dd2 apicoplast. The note with it: ref [61]; cited from earlier work.
Data set [3] has as its system P. falciparum W2 apicoplast. The note with it: ref [60]; cited from earlier work.
For data set [4], the system named is P. falciparum 3D7 trophozoites. Kind of data set: Metabolomic fingerprint profiling LC-MS. Format: cell-based, Plasmodium falciparum. The arrangement: UDP-D-glucose / ADP-D-glucose: unit not given here.
In a further data set the test system is P. falciparum. In words: EC50 listed in S2 Table Metabolomics (used to set the concentration tested). The data set is classed as cell-based. The following applies: Plasmodium falciparum; EC50 used for Factor_XEC50 in metabolomics; read-out: EC50_nM.
The next data set concerns Cryptosporidium parvum. Kind of data set: Cryptosporidium parvum high content microscopy in HCT-8.
The next data set has as its target T2, dUTPase (Plasmodium falciparum, UniProt Q8II92).
T2 construct: […]; made in house
In words: Bioaffinity Mass Spectrometry Screening, dUTPase. The following applies: compound:protein ~5:1. Format: binding. As for the experimental part:
as §1, §2, §3, §4

A further data set deals with PfCDPK4. The following applies: ref [25]; cited from earlier work.
For a further data set, the system named is Dictyostelium discoideum. The following applies: 7.5 µM; ref [150]; cited from earlier work.
The test system of data set [5] is Schistosoma mansoni adult males. In words: S. mansoni adult phenotypic and motility screen Caffrey.
The subject of data set [6] is S. mansoni newly transformed schistosomula (NTS). The arrangement: method as in ref [91] (a number printed in a supplementary file, which may have a reference list of its own: not looked up in the article's list). The note with it: ref [91]; read-out: Schistosoma mansoni newly transformed schistosomula EC50 J. Keiser; cited from earlier work.
The next data set concerns S. mansoni adult worms. The arrangement: method as in ref [91] (a number printed in a supplementary file, which may have a reference list of its own: not looked up in the article's list). The note with it: ref [91]; read-out: Schistosoma mansoni adult worm EC50 J. Keiser; cited from earlier work.
The subject of data set [7] is Schistosoma mansoni schistosomula (somules). In words: S. mansoni somules phenotypic screen Caffrey. The note with it: 2.5 µM, 48 h.
The next data set deals with Mycobacterium marinum. In words: M. marinum antibiotic assay. The following applies: 10µM. Format: cell-based. As for the experimental part:
Columns FA-FC: Soldati Group (data presented first in this paper). M. marinum, D. discoideum, and Acathamoeba castellani assays. Each compound of the Malaria Box has been assayed at 10 µM in all three assays. First, the antibiotic activity was assayed directly against Mycobacterium marinum in its culture medium. Second, the toxicity and growth inhibitory effect of the compounds was assayed against the amoeba Dictyostelium discoideum in its culture medium. Finally, the “in cellulo” anti-infective activity of each compound was tested using the intracellular infection system Acanthamoeba castellanii-M. marinum. Values have been normalized using the DMSO carrier. For each assay, values have been normalized to 1.00 using the DMSO carrier, which has no detectable effect on D. discoideum nor M. marinum growth, while rifabutin was used as positive control for the antibiotic assay and the infection assay, as it abolishes M. marinum growth (normalized value under 0.10) in broth at 10 µM and intracellularly at 30 µM [150].

The test system of data set [8] is Mycobacterium marinum in Acanthamoeba castellanii. Also noted: method as in ref [150] (a number printed in a supplementary file, which may have a reference list of its own: not looked up in the article's list). The following applies: 30 µM; ref [150]; cited from earlier work.
The target in a further data set is P. falciparum HDAC1 (Plasmodium falciparum, UniProt Q7K6A1). Kind of data set: PfHDAC1 HDAC glo I/II. Format: biochemical. The following applies: 50nM.
Sequence of P. falciparum HDAC1 (Q7K6A1 entry or part of it): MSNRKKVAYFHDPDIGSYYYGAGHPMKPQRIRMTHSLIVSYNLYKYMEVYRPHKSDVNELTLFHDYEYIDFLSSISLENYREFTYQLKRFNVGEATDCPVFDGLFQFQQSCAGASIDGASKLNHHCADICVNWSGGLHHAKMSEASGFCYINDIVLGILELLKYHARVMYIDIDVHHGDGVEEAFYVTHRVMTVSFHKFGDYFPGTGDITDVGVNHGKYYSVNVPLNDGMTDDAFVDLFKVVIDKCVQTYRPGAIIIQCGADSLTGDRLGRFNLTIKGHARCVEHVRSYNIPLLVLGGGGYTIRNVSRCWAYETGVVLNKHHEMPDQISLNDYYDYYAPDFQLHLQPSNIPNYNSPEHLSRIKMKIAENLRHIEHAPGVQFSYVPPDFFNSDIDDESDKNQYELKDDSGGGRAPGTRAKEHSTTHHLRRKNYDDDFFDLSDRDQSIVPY
Setting [9] is: metabolite level change after treatment.

The values below come from PMC4965013, “Open Source Drug Discovery with the Malaria Box Compound Collection for Neglected Diseases and Beyond” (PLoS Pathogens, 2016).

Structures are written as SMILES.

T1 sequence (Q8IKU0 1-327): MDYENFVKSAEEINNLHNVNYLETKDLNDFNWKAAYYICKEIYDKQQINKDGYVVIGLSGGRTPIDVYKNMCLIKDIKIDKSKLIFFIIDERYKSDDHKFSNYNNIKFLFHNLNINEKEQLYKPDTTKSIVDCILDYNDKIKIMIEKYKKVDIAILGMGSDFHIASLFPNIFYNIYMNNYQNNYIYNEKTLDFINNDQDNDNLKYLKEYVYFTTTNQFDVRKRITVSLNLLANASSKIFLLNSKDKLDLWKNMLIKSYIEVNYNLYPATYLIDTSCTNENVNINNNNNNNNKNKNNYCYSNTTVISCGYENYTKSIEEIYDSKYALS
T2 sequence (Q8II92 whole entry, added parts left off): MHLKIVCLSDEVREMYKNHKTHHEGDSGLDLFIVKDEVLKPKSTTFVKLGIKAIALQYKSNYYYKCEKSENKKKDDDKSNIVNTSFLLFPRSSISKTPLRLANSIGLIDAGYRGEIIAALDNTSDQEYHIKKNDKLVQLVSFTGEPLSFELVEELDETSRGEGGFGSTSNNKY

On to `O=C(O)C1Cc2c([nH]c3ccccc23)C(c2ccc(Cl)cc2Cl)N1` (centres unmarked) [MMV008138], for which the “binding to 6-Phosphogluconolactonase (confirmation)” value in [1] is recorded as “binding”. In [2], the “apicoplast targeting in words” value is on record as “targets the apicoplast”. In addition, the “rescue by IPP supplementation in words” value in data set [3] is on record as “highest level of rescue”. The Acetyllysine in data set [4] (S2 Table Metabolomics, metabolite Acetyllysine) is recorded as 0.5387. Besides, in data set [4] (S2 Table Metabolomics, metabolite N-acetyl-L-ornithine), the N-acetyl-L-ornithine was 0.5503. In [4] (S2 Table Metabolomics, metabolite N-carbamoyl-L-aspartate), the N-carbamoyl-L-aspartate came out at 0.144. Also, in data set [4] (S2 Table Metabolomics, metabolite NADPH), the NADPH was found to be 0.4869. In addition, the dAMP in data set [4] (S2 Table Metabolomics, metabolite dAMP) was 0.6135. In addition, the dCMP in data set [4] (S2 Table Metabolomics, metabolite dCMP) amounted to 0.1541. Besides, the dTDP in data set [4] (S2 Table Metabolomics, metabolite dTDP) was determined as 0.7214. Moreover, the dTMP in [4] (S2 Table Metabolomics, metabolite dTMP) came to 0.483. The dTTP in [4] (S2 Table Metabolomics, metabolite dTTP) came to 0.2857. Moreover, in [4] (S2 Table Metabolomics, metabolite dihydroorotate), the dihydroorotate is reported as 0.2096. Moreover, the orotate in data set [4] (S2 Table Metabolomics, metabolite orotate) came to 0.1204. Also, the DLH in data set [4] (S2 Table Metabolomics, peptide DLH) is on record as -0.1546. The molecule also yielded a DLS/SDL/SID in [4] (S2 Table Metabolomics, peptide DLS/SDL/SID) of 0.007657. Besides, the PD in data set [4] (S2 Table Metabolomics, peptide PD) is on record as 0.2545. Moreover, the PEE in [4] (S2 Table Metabolomics, peptide PEE) worked out at 0.5615. In [4] (S2 Table Metabolomics, peptide PVNF), the PVNF is reported as -0.063. Moreover, the 3-phosphoglycerate in data set [4] (metabolite 3-phosphoglycerate, S2 Table Metabolomics) is on record as 0.3297. The ADP-D-glucose in data set [4] (metabolite ADP-D-glucose, S2 Table Metabolomics) stood at 0.3003. The ATP in data set [4] (metabolite ATP, S2 Table Metabolomics) is given as 0.2312. Also, in data set [4] (metabolite CDP, S2 Table Metabolomics, change in metabolite level after compound treatment), the CDP turned out to be 0.6827. Moreover, the D-sedoheptulose-1/7-phosphate in data set [4] (metabolite D-sedoheptulose-1/7-phosphate, S2 Table Metabolomics, change in metabolite level after compound treatment) was 0.414. In addition, the FAD in [4] (metabolite FAD, S2 Table Metabolomics) is listed as 0.2533. The GMP in data set [4] (metabolite GMP, S2 Table Metabolomics, change in metabolite level after compound treatment) is -0.6458. Also, the “NAD+” value in data set [4] (metabolite NAD+, S2 Table Metabolomics) stood at 0.09564. In addition, the “NADP+” value in [4] (metabolite NADP+, S2 Table Metabolomics) stood at 0.2678. Also, in data set [4] (metabolite Octoluse Bisphosphate, S2 Table Metabolomics, change in metabolite level after compound treatment), the “Octoluse Bisphosphate” value is 0.757. In data set [4] (metabolite Pyroglutamic acid, S2 Table Metabolomics), the Pyroglutamic acid is recorded as -0.1569. Moreover, in data set [4] (metabolite UDP-D-glucose, S2 Table Metabolomics), the UDP-D-glucose was 0.2273. In addition, the UDP-D-glucuronate in [4] (metabolite UDP-D-glucuronate, S2 Table Metabolomics) is recorded as 0.2472. In addition, in [4] (metabolite UDP-N-acetyl-glucosamine, S2 Table Metabolomics), the UDP-N-acetyl-glucosamine is 0.2573. The UDP in data set [4] (metabolite UDP, S2 Table Metabolomics, change in metabolite level after compound treatment) turned out to be 0.7153. The UMP in data set [4] (metabolite UMP, S2 Table Metabolomics, change in metabolite level after compound treatment) was -0.1378. Besides, the UTP in data set [4] (metabolite UTP, S2 Table Metabolomics, change in metabolite level after compound treatment) was determined as 0.4566. Besides, the a-ketoglutarate in data set [4] (metabolite a-ketoglutarate, S2 Table Metabolomics) was -0.4582. In addition, in [4] (metabolite citrate/isocitrate, S2 Table Metabolomics, change in metabolite level after compound treatment), the citrate/isocitrate is recorded as -0.1476. Also, in data set [4] (metabolite cytidine, S2 Table Metabolomics), the cytidine is on record as -0.2541. The dATP in [4] (metabolite dATP, S2 Table Metabolomics) was determined as 0.1704. In [4] (metabolite dGMP/AMP, S2 Table Metabolomics, change in metabolite level after compound treatment), the dGMP/AMP was 0.6095. Also, the fumarate in data set [4] (metabolite fumarate, S2 Table Metabolomics, change in metabolite level after compound treatment) was 0.1788. The glucose-1/6-phosphate in data set [4] (metabolite glucose-1/6-phosphate, S2 Table Metabolomics, change in metabolite level after compound treatment) stood at 0.6615. Moreover, the glycerate in [4] (metabolite glycerate, S2 Table Metabolomics, change in metabolite level after compound treatment) stood at 0.3332. For the same molecule, in [4] (metabolite guanine, S2 Table Metabolomics, change in metabolite level after compound treatment), the guanine is reported as -0.07738. Moreover, in [4] (metabolite guanosine, S2 Table Metabolomics, change in metabolite level after compound treatment), the guanosine was -0.4378. Also, in [4] (metabolite hypoxanthine, S2 Table Metabolomics), the hypoxanthine is -0.1251. In addition, the indole in [4] (metabolite indole, S2 Table Metabolomics) was -0.05929. For the same molecule, the inosine in data set [4] (metabolite inosine, S2 Table Metabolomics, change in metabolite level after compound treatment) is -0.03831. Further, in [4] (setting [9]), the 2_3-Diphosphoglyceric acid came to 0.5774, the 4-phosphopantothenate was 0.6234, the 6-phospho-D-gluconate is given as 0.4127 and the FMN stood at 0.5115. Also, in data set [4] (setting [9]), the IMP is recorded as 0.3745, the Pyrophosphate is 0.4065, the Sedoheptoluse bisphosphate was 0.7391 and the cyclic-AMP was determined as 0.217. In data set [4] (setting [9]), the glutathione disulfide stood at 0.4434, the lactate is recorded as -0.4969 and the myo-inositol amounted to 0.6581. For the same molecule, in data set [4] (metabolite nicotinate, S2 Table Metabolomics), the nicotinate is -0.1339. Moreover, the ornithine in data set [4] (metabolite ornithine, S2 Table Metabolomics) is listed as 0.07192. Besides, the phosphoenolpyruvate in data set [4] (metabolite phosphoenolpyruvate, S2 Table Metabolomics) came to 0.04449. The pyruvate in data set [4] (metabolite pyruvate, S2 Table Metabolomics, change in metabolite level after compound treatment) is -0.3198. The ribose-phosphate in data set [4] (metabolite ribose-phosphate, S2 Table Metabolomics) was 0.3445. In addition, the sarcosine/alanine in [4] (metabolite sarcosine/alanine, S2 Table Metabolomics, change in metabolite level after compound treatment) came out at 0.05421. In [4] (metabolite sn-glycerol-3-phosphate, S2 Table Metabolomics), the sn-glycerol-3-phosphate is -0.3078. In addition, in data set [4] (metabolite succinate/methylmalonic acid, S2 Table Metabolomics, change in metabolite level after compound treatment), the succinate/methylmalonic acid worked out at 0.03332. Also, the uridine in data set [4] (metabolite uridine, S2 Table Metabolomics, change in metabolite level after compound treatment) is listed as -0.07029. Further, the xanthosine in data set [4] (metabolite xanthosine, S2 Table Metabolomics, change in metabolite level after compound treatment) was -0.1854. For the same molecule, the EC50 in the data set on P. falciparum is 350 nM.

On to `O=C(Nc1ccc(Cl)cc1)N1CCN(c2ccc3nncn3n2)CC1` [MMV665917], for which the “Selectivity Index C. parvum over mammalian cells” value with Cryptosporidium parvum is greater than 20.

For the molecule `O=c1nc(C=Cc2ccc(Br)cc2)oc2ccccc12` [MMV666599], the “binding to dUTPase (confirmation)” value on dUTPase is recorded as “binding”. The IC50 (commonly the concentration that inhibits the measured activity by half) in the data set on PfCDPK4 is 700 nM.

`CN1CCC[C@H]1c1cccnc1` [Nicotine]: in the data set on Dictyostelium discoideum, the “D. discoideum growth, positive control” value is on record as “abolishes its growth”.

`O=C(C1CCCCC1)N1CC(=O)N2CCc3ccccc3C2C1` (centres unmarked) [Praziquantel]: in data set [5] (48 h, 5µM), the “S. mansoni adult males 48hr motility assay” value is “zero”. The “S. mansoni adult males visual tox scale, 0 = none, 4=most damaged” value in data set [5] (48hr at 5 µM) was 4. In addition, the EC50 in [6] was 2200 nM; in the data set with S. mansoni adult worms, 200 nM. Further, in data set [7], the somule severity score came to 4.

In the case of `CO[C@H]1/C=C/O[C@@]2(C)Oc3c(C)c(O)c4c(c3C2=O)C2=NC3(CCN(CC(C)C)CC3)NC2=C(NC(=O)/C(C)=C\C=C\[C@H](C)[C@H](O)[C@@H](C)[C@@H](O)[C@@H](C)[C@H](OC(C)=O)[C@@H]1C)C4=O` [rifabutin, reference compound], the “Mycobacterium marinum relative growth DMSO=1 Antibiotic Assay” value in the data set with Mycobacterium marinum is listed as “under 0.10”. Also, the “M. marinum intracellular growth, normalized value” in data set [8] was “under 0.10”.

`CC(/C=C/C(=O)NO)=C\[C@@H](C)C(=O)c1ccc(N(C)C)cc1` [trichostatin A]: the PfHDAC1 % inhibition at P. falciparum HDAC1 is reported as 89.9 ± 0.5%.
